Test system: MV-4-11 cells
Experiment: Gene expression microarray analysis (Affymetrix PrimeView) and GSEA
Assay type: cell-based, human
Parameters: RFU PODN (11730768_x_at) / Fold change /veh PODN (11730768_x_at) / RFU LINC00158 (11744669_a_at) / Fold change /veh LINC00158 (11744669_a_at) / RFU DUSP10 (11751237_a_at) / Fold change /veh DUSP10 (11751237_a_at) / RFU ID3 (11757404_x_at) / Fold change /veh ID3 (11757404_x_at) / RFU PLEKHG5 (11737974_s_at) / Fold change /veh PLEKHG5 (11737974_s_at) / RFU LRRC4B (11730491_at) / Fold change /veh LRRC4B (11730491_at) / RFU GIMAP4 (11747438_a_at) / Fold change /veh GIMAP4 (11747438_a_at) / RFU KRT8 (11758183_x_at) / Fold change /veh KRT8 (11758183_x_at) / RFU CNN1 (11734310_a_at) / Fold change /veh CNN1 (11734310_a_at) / RFU VPS37D (11726825_at) / Fold change /veh VPS37D (11726825_at) / RFU C10orf10 (11716522_x_at) / Fold change /veh C10orf10 (11716522_x_at) / RFU KIR2DL2 /// KIR2DL4 /// KIR2DL5A /// KIR2DL5B /// KIR2DS1 /// KIR2DS2 /// KIR2DS3 /// KIR2DS4 /// KIR3DL3 /// KIR3DL3 /// KIR3DS1 (11738374_at) / Fold change /veh KIR2DL2 /// KIR2DL4 /// KIR2DL5A /// KIR2DL5B /// KIR2DS1 /// KIR2DS2 /// KIR2DS3 /// KIR2DS4 /// KIR3DL3 /// KIR3DL3 /// KIR3DS1 (11738374_at) / RFU C1QL1 (11718748_at) / Fold change /veh C1QL1 (11718748_at) / RFU TMPRSS4 (11747572_a_at) / Fold change /veh TMPRSS4 (11747572_a_at) / RFU HAMP (11756126_x_at) / Fold change /veh HAMP (11756126_x_at) / RFU RNFT2 (11725882_a_at) / Fold change /veh RNFT2 (11725882_a_at) / RFU NR4A2 (11747474_a_at) / Fold change /veh NR4A2 (11747474_a_at) / RFU ABCC12 (11746883_a_at) / Fold change /veh ABCC12 (11746883_a_at) / RFU TMEM136 (11760407_x_at) / Fold change /veh TMEM136 (11760407_x_at) / RFU CLDN22 /// WWC2 (11732394_at) / Fold change /veh CLDN22 /// WWC2 (11732394_at) / RFU HLA-DPB1 (11760878_x_at) / Fold change /veh HLA-DPB1 (11760878_x_at) / RFU SPINT1 (11716480_a_at) / Fold change /veh SPINT1 (11716480_a_at) / RFU GAP43 (11754022_s_at) / Fold change /veh GAP43 (11754022_s_at) / RFU A4GNT (11735810_at) / Fold change /veh A4GNT (11735810_at) / RFU PRB3 (11715151_x_at) / Fold change /veh PRB3 (11715151_x_at) / RFU TUBB4B (11761932_at) / Fold change /veh TUBB4B (11761932_at) / RFU CAPN14 (11732068_a_at) / Fold change /veh CAPN14 (11732068_a_at) / RFU TMCC2 (11721928_a_at) / Fold change /veh TMCC2 (11721928_a_at) / RFU IRGQ (11745062_a_at) / Fold change /veh IRGQ (11745062_a_at) / RFU FAM174B (11720279_a_at) / Fold change /veh FAM174B (11720279_a_at) / RFU TMPRSS4 (11748680_a_at) / Fold change /veh TMPRSS4 (11748680_a_at) / RFU FAM212B (11763350_a_at) / Fold change /veh FAM212B (11763350_a_at) / RFU PLEKHG5 (11743358_a_at) / Fold change /veh PLEKHG5 (11743358_a_at) / RFU ZSCAN30 (11745921_a_at) / Fold change /veh ZSCAN30 (11745921_a_at) / RFU CMKLR1 (11741424_a_at) / Fold change /veh CMKLR1 (11741424_a_at) / RFU LOC101060620 /// MAPK8IP1 (11723275_at) / Fold change /veh LOC101060620 /// MAPK8IP1 (11723275_at) / RFU SPTSSB (11747773_x_at) / Fold change /veh SPTSSB (11747773_x_at) / RFU PRSS12 (11739890_at) / Fold change /veh PRSS12 (11739890_at) / RFU BIN1 (11741810_x_at) / Fold change /veh BIN1 (11741810_x_at) / RFU WNT11 (11732464_a_at) / Fold change /veh WNT11 (11732464_a_at) / RFU C10orf10 (11716521_a_at) / Fold change /veh C10orf10 (11716521_a_at) / RFU C5orf56 (11738089_at) / Fold change /veh C5orf56 (11738089_at) / RFU CYB561 (11721691_x_at) / Fold change /veh CYB561 (11721691_x_at) / RFU ANKRD19P (11752326_a_at) / Fold change /veh ANKRD19P (11752326_a_at) / RFU OR2T12 /// OR2T33 /// OR2T8 (11738714_s_at) / Fold change /veh OR2T12 /// OR2T33 /// OR2T8 (11738714_s_at) / RFU VCAN (11748164_a_at) / Fold change /veh VCAN (11748164_a_at) / RFU JSRP1 (11732532_at) / Fold change /veh JSRP1 (11732532_at) / RFU KRTAP10-11 (11738290_x_at) / Fold change /veh KRTAP10-11 (11738290_x_at) / RFU MYO3A (11730013_a_at) / Fold change /veh MYO3A (11730013_a_at) / RFU EBF3 (11725865_a_at) / Fold change /veh EBF3 (11725865_a_at) / RFU CAMK2N1 (11719241_x_at) / Fold change /veh CAMK2N1 (11719241_x_at) / RFU C5orf56 (11738088_a_at) / Fold change /veh C5orf56 (11738088_a_at) / RFU OLFML3 (11715873_a_at) / Fold change /veh OLFML3 (11715873_a_at) / RFU LOC100653217 /// NTM (11731650_a_at) / Fold change /veh LOC100653217 /// NTM (11731650_a_at) / RFU MAPK11 (11762145_a_at) / Fold change /veh MAPK11 (11762145_a_at) / RFU FIZ1 (11724087_x_at) / Fold change /veh FIZ1 (11724087_x_at) / RFU OASL (11726364_x_at) / Fold change /veh OASL (11726364_x_at) / RFU SOX15 (11748057_x_at) / Fold change /veh SOX15 (11748057_x_at) / RFU CD79A (11719716_a_at) / Fold change /veh CD79A (11719716_a_at) / RFU HIST1H1D (11736915_at) / Fold change /veh HIST1H1D (11736915_at) / RFU CASKIN2 (11723855_a_at) / Fold change /veh CASKIN2 (11723855_a_at) / RFU LOC730098 (11760151_x_at) / Fold change /veh LOC730098 (11760151_x_at) / RFU OR4N2 (11742367_at) / Fold change /veh OR4N2 (11742367_at) / RFU PRRT2 (11749266_a_at) / Fold change /veh PRRT2 (11749266_a_at) / RFU SNX32 (11753110_a_at) / Fold change /veh SNX32 (11753110_a_at) / RFU CDHR5 (11726645_a_at) / Fold change /veh CDHR5 (11726645_a_at) / RFU RCAN1 (11760418_a_at) / Fold change /veh RCAN1 (11760418_a_at) / RFU FAM167A (11723789_a_at) / Fold change /veh FAM167A (11723789_a_at) / RFU FAM26E (11764081_at) / Fold change /veh FAM26E (11764081_at) / RFU ISYNA1 (11749810_s_at) / Fold change /veh ISYNA1 (11749810_s_at) / RFU ACY1 (11761880_at) / Fold change /veh ACY1 (11761880_at) / RFU 11764098_at / Fold change /veh 11764098_at / RFU SAMD14 (11745864_x_at) / Fold change /veh SAMD14 (11745864_x_at) / RFU NPB (11741838_a_at) / Fold change /veh NPB (11741838_a_at) / RFU TMPRSS6 (11731388_a_at) / Fold change /veh TMPRSS6 (11731388_a_at) / RFU KRTAP10-2 (11738614_at) / Fold change /veh KRTAP10-2 (11738614_at) / RFU ARHGAP8 /// PRR5-ARHGAP8 (11727945_x_at) / Fold change /veh ARHGAP8 /// PRR5-ARHGAP8 (11727945_x_at) / RFU KRTAP5-7 /// NADSYN1 (11734609_at) / Fold change /veh KRTAP5-7 /// NADSYN1 (11734609_at) / RFU RASL12 (11751679_a_at) / Fold change /veh RASL12 (11751679_a_at) / RFU CDKN2B (11736163_a_at) / Fold change /veh CDKN2B (11736163_a_at) / RFU PRF1 (11729649_at) / Fold change /veh PRF1 (11729649_at) / RFU, ZNF638 /// ZNF638-IT1 / Fold change vs veh, ZNF638 /// ZNF638-IT1 / RFU, PANK3 / Fold change vs veh, PANK3 / RFU, SH3YL1 / Fold change vs veh, SH3YL1 / RFU, ZEB2 / Fold change vs veh, ZEB2 / RFU, NRIP1 / Fold change vs veh, NRIP1 / RFU, PTTG1IP / Fold change vs veh, PTTG1IP / RFU, CAPN2 / Fold change vs veh, CAPN2 / RFU, MED14 / Fold change vs veh, MED14 / RFU, SNORA58 / Fold change vs veh, SNORA58 / RFU, C1orf63 / Fold change vs veh, C1orf63 / RFU, LRRFIP1 / Fold change vs veh, LRRFIP1 / RFU, NDUFAF7 / Fold change vs veh, NDUFAF7 / RFU, SLC12A2 / Fold change vs veh, SLC12A2 / RFU, IBTK / Fold change vs veh, IBTK / RFU, ESF1 / Fold change vs veh, ESF1 / Fold change vs veh, TMEM50B / RFU, TAOK1 / Fold change vs veh, TAOK1 / RFU, ACBD3 / Fold change vs veh, ACBD3 / RFU, TMA16 / Fold change vs veh, TMA16 / RFU, RWDD3 / Fold change vs veh, RWDD3 / RFU, BCAT1 / Fold change vs veh, BCAT1 / RFU, EDEM3 / Fold change vs veh, EDEM3 / RFU, TMEM33 / Fold change vs veh, TMEM33 / RFU, WDR75 / Fold change vs veh, WDR75 / RFU, AHCTF1 / Fold change vs veh, AHCTF1 / RFU, TFRC / Fold change vs veh, TFRC / RFU, ZDHHC17 / Fold change vs veh, ZDHHC17 / RFU, NOM1 / Fold change vs veh, NOM1 / RFU, ARL8B / Fold change vs veh, ARL8B / RFU, ZBTB11 / Fold change vs veh, ZBTB11 / RFU, TAMM41 / Fold change vs veh, TAMM41 / RFU, KIAA1704 /// LOC100996395 / Fold change vs veh, KIAA1704 /// LOC100996395 / RFU, ING1 / Fold change vs veh, ING1 / RFU, TRMT61B / Fold change vs veh, TRMT61B / RFU, FUBP3 / Fold change vs veh, FUBP3 / RFU, TP53 / Fold change vs veh, TP53 / RFU, TNKS2 / Fold change vs veh, TNKS2 / RFU, ZFP14 / Fold change vs veh, ZFP14 / RFU, ACTR2 / Fold change vs veh, ACTR2 / RFU, PPP3R1 / Fold change vs veh, PPP3R1 / RFU, PIK3R1 / Fold change vs veh, PIK3R1 / RFU, HNRNPA1 / Fold change vs veh, HNRNPA1 / RFU, RNF170 / Fold change vs veh, RNF170 / RFU, ZNF28 / Fold change vs veh, ZNF28 / RFU, RNGTT / Fold change vs veh, RNGTT / RFU, OGT / Fold change vs veh, OGT / RFU, BRD1 / Fold change vs veh, BRD1 / RFU, MARS / Fold change vs veh, MARS / RFU, ZNF655 / Fold change vs veh, ZNF655 / RFU, FAHD1 / Fold change vs veh, FAHD1 / RFU, BDP1 / Fold change vs veh, BDP1 / RFU, LRRCC1 / Fold change vs veh, LRRCC1 / RFU, ARID1A / Fold change vs veh, ARID1A / RFU, ZNF146 / Fold change vs veh, ZNF146 / RFU, ZNF330 / Fold change vs veh, ZNF330 / RFU, GPN3 / Fold change vs veh, GPN3 / RFU, C9orf123 / Fold change vs veh, C9orf123 / RFU, N4BP2L2 / Fold change vs veh, N4BP2L2 / RFU, ARFIP1 / Fold change vs veh, ARFIP1 / RFU, FAM179B / Fold change vs veh, FAM179B / RFU, BCL10 / Fold change vs veh, BCL10 / RFU, UHRF1BP1L / Fold change vs veh, UHRF1BP1L / RFU, BET1 / Fold change vs veh, BET1 / RFU, CNOT2 / Fold change vs veh, CNOT2 / RFU, ZNF268 / Fold change vs veh, ZNF268 / Fold change vs veh, ZNF507 / RFU, DGCR2 / Fold change vs veh, DGCR2 / RFU, WDSUB1 / Fold change vs veh, WDSUB1 / Fold change vs veh, HSP90B1 /// MIR3652 / RFU, ADSS / Fold change vs veh, ADSS / RFU, GK / Fold change vs veh, GK / RFU, ZNF148 / Fold change vs veh, ZNF148 / RFU, TAF9 / Fold change vs veh, TAF9 / RFU, SLC1A5 / Fold change vs veh, SLC1A5 / RFU, SLMO2 / Fold change vs veh, SLMO2 / RFU, ABCC4 / Fold change vs veh, ABCC4 / RFU, LOC101060439 /// RAP1B / Fold change vs veh, LOC101060439 /// RAP1B / RFU, RFX7 / Fold change vs veh, RFX7 / RFU, GTPBP10 / Fold change vs veh, GTPBP10 / RFU, CNEP1R1 / Fold change vs veh, CNEP1R1 / RFU, BIVM-ERCC5 /// ERCC5 / Fold change vs veh, BIVM-ERCC5 /// ERCC5 / RFU, ILF3 / Fold change vs veh, ILF3 / RFU 11762660_at / Fold change /veh 11762660_at / RFU VCAN (11757783_s_at) / Fold change /veh VCAN (11757783_s_at) / RFU DDX43 (11728927_at) / Fold change /veh DDX43 (11728927_at) / RFU KRT8 (11758188_x_at) / Fold change /veh KRT8 (11758188_x_at) / RFU NKD1 (11759106_at) / Fold change /veh NKD1 (11759106_at) / RFU SRD5A1 (11742802_a_at) / Fold change /veh SRD5A1 (11742802_a_at) / RFU TPSAB1 /// TPSB2 (11721975_s_at) / Fold change /veh TPSAB1 /// TPSB2 (11721975_s_at) / RFU GSTM3 (11746129_a_at) / Fold change /veh GSTM3 (11746129_a_at) / RFU IL23R (11737362_x_at) / Fold change /veh IL23R (11737362_x_at) / RFU TMEM51 (11727254_a_at) / Fold change /veh TMEM51 (11727254_a_at) / RFU PIWIL2 (11732686_x_at) / Fold change /veh PIWIL2 (11732686_x_at) / RFU ORM1 (11744905_x_at) / Fold change /veh ORM1 (11744905_x_at) / RFU CCDC152 (11743942_at) / Fold change /veh CCDC152 (11743942_at) / RFU ECM1 (11717891_a_at) / Fold change /veh ECM1 (11717891_a_at) / RFU IL23R (11748794_a_at) / Fold change /veh IL23R (11748794_a_at) / RFU TNFAIP8L3 (11732012_x_at) / Fold change /veh TNFAIP8L3 (11732012_x_at) / RFU MBOAT4 (11741988_at) / Fold change /veh MBOAT4 (11741988_at) / RFU 11764193_at / Fold change /veh 11764193_at / RFU TMEM53 (11763286_at) / Fold change /veh TMEM53 (11763286_at) / RFU MAGEB2 (11727129_at) / Fold change /veh MAGEB2 (11727129_at) / RFU TMEM200A (11744735_a_at) / Fold change /veh TMEM200A (11744735_a_at) / RFU CCDC152 (11751479_a_at) / Fold change /veh CCDC152 (11751479_a_at) / RFU FAM211A (11726209_a_at) / Fold change /veh FAM211A (11726209_a_at) / RFU RGS16 (11746705_a_at) / Fold change /veh RGS16 (11746705_a_at) / RFU VCAN (11755009_s_at) / Fold change /veh VCAN (11755009_s_at) / RFU RHOB (11743442_s_at) / Fold change /veh RHOB (11743442_s_at) / RFU RGS16 (11720943_a_at) / Fold change /veh RGS16 (11720943_a_at) / RFU RGS16 (11720944_at) / Fold change /veh RGS16 (11720944_at) / RFU, VPS4B / Fold change vs veh, VPS4B / RFU, CREB1 / Fold change vs veh, CREB1 / RFU, DNAJC13 / Fold change vs veh, DNAJC13 / RFU, GNAQ / Fold change vs veh, GNAQ / RFU, CDK5R1 / Fold change vs veh, CDK5R1 / RFU, ZRANB3 / Fold change vs veh, ZRANB3 / RFU, CUL4A / Fold change vs veh, CUL4A / RFU, CCNY / Fold change vs veh, CCNY / RFU, UFL1 / Fold change vs veh, UFL1 / RFU, COG3 / Fold change vs veh, COG3 / RFU, DIAPH2 / Fold change vs veh, DIAPH2 / RFU, SKA2 / Fold change vs veh, SKA2 / RFU, AFF3 / Fold change vs veh, AFF3 / RFU, LMF1 / Fold change vs veh, LMF1 / RFU, IPO11 / Fold change vs veh, IPO11 / RFU, DFFB / Fold change vs veh, DFFB / RFU, FOXP1 / Fold change vs veh, FOXP1 / RFU, CARD8 / Fold change vs veh, CARD8 / RFU, STRN3 / Fold change vs veh, STRN3 / RFU, ADK / Fold change vs veh, ADK / RFU, RASSF2 / Fold change vs veh, RASSF2 / RFU, WIPF1 / Fold change vs veh, WIPF1 / RFU, LARP1B / Fold change vs veh, LARP1B / RFU, RASA1 / Fold change vs veh, RASA1 / RFU, RB1 / Fold change vs veh, RB1 / RFU, PPFIA1 / Fold change vs veh, PPFIA1 / RFU, MAT2A / Fold change vs veh, MAT2A / RFU, CCT5 / Fold change vs veh, CCT5 / RFU, WDR92 / Fold change vs veh, WDR92 / RFU, CUX1 / Fold change vs veh, CUX1 / RFU, TTC7A / Fold change vs veh, TTC7A / RFU, TMEM135 / Fold change vs veh, TMEM135 / RFU, DEPTOR / Fold change vs veh, DEPTOR / RFU, CPM / Fold change vs veh, CPM / RFU, DNAJB6 / Fold change vs veh, DNAJB6 / RFU, CACNA2D3 / Fold change vs veh, CACNA2D3 / RFU, DTX4 / Fold change vs veh, DTX4 / RFU, TFCP2 / Fold change vs veh, TFCP2 / RFU, GMCL1 /// GMCL1P1 / Fold change vs veh, GMCL1 /// GMCL1P1 / RFU, AEBP2 / Fold change vs veh, AEBP2 / RFU, SNHG1 /// SNORD22 /// SNORD25 /// SNORD26 /// SNORD27 /// SNORD28 /// SNORD29 /// SNORD31 / Fold change vs veh, SNHG1 /// SNORD22 /// SNORD25 /// SNORD26 /// SNORD27 /// SNORD28 /// SNORD29 /// SNORD31 / Fold change (Aza/veh), C12orf56 (ProbeSet 11735607_a_at) / Fold change (ACY-1035/veh), C12orf56 (ProbeSet 11735607_a_at) / Fold change (Aza/veh), FGFR1OP (ProbeSet 11751329_s_at) / Fold change (ACY-1035/veh), FGFR1OP (ProbeSet 11751329_s_at) / Fold change (Aza/veh), VPS36 (ProbeSet 11739960_a_at) / Fold change (ACY-1035/veh), VPS36 (ProbeSet 11739960_a_at) / RFU SYPL1 (11715823_x_at) / Fold change /veh SYPL1 (11715823_x_at) / RFU IGFBP7 (11715501_s_at) / Fold change /veh IGFBP7 (11715501_s_at) / RFU REEP3 (11722064_at) / Fold change /veh REEP3 (11722064_at) / RFU IGLL1 (11728026_x_at) / Fold change /veh IGLL1 (11728026_x_at): dose or concentration left out as unconfirmed
Details: ProbeSet 11754362_a_at; LIST D

`Nc1ccc(-c2cccs2)cc1NC(=O)c1ccc2c(c1)cc(C1CC1)n2CCN1CCOCC1` [ACY-1035] was tested. Which “Fold change vs veh, TTC7A” value did it give?
The value was 0.87.

Source: article PMC5218480 (PLoS ONE, 2017)
